Assay results as given in PubChem BioAssay (NCI).
Where “and” joins values, the source holds several entries; their conditions need not be identical. Equal entries are not always repeated.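 All cell lines were grown in 96-well plates and treated with compound for 48 hours. The concentration for 50% growth inhibition is given as GI50. TGI: total growth inhibition.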

How the values were obtained:
Assay in all cases: inhibition of tumour cell growth, NCI panel, 48 h
[1] = system: MALME-3M melanoma
[2] = system: HOP-92 NSCLC
[3] = system: SW-620 colon
[4] = system: RPMI-8226 leukemia
[5] = system: U251 CNS
[6] = system: 786-0 renal
[7] = system: OVCAR-8 ovarian
[8] = system: SK-MEL-2 melanoma
[9] = system: NCI/ADR-RES ovarian
[10] = system: T-47D breast

SMILES	TGI [1] [µM]	TGI [2] [µM]	TGI [3] [µM]	TGI [4] [µM]	TGI [5] [µM]	TGI [6] [µM]	TGI [7] [µM]	TGI [8] [µM]	TGI [9] [µM]	TGI [10] [µM]	GI50 [1] [µM]	GI50 [2] [µM]	GI50 [3]	GI50 [4]	GI50 [5]	GI50 [6]	GI50 [7]	GI50 [8]	GI50 [9]	GI50 [10] [µM]
c1ccc2c(c1)Cc1c(Cc3csc4ccccc34)ccc3cccc-2c13	> 100	> 100	> 100	> 100	> 100	> 100	> 100	> 100	–	–	–	–	–	–	–	–	–	–	–	–
COc1cc(/C=C(\NC(=O)c2ccccc2)c2nc3ncncc3[nH]2)cc(OC)c1OC	> 100	> 100	> 100	–	> 100	> 100	> 100	> 100	–	–	–	–	–	–	–	–	–	–	–	–
COc1ccc(/C=C/C(=O)c2c(-c3ccccc3)nn(C)c(=O)c2N2CCOCC2)cc1	–	> 100	> 100	> 100	> 100	> 100	> 100	–	–	–	–	–	–	–	–	–	–	–	–	–
COc1ccccc1/C=C\C(=O)C1COCN1 (configuration not stated)	45.7	–	19.4	7.53	28.1	75.5	30.6	56.7	52.3	20.7	–	–	–	–	–	–	–	–	–	–
CC1(C)C(=O)C(C)(C)C1=NNC(N)=S	> 100	> 100	> 100	> 100	> 100	> 100	> 100	–	–	–	–	–	–	–	–	–	–	–	–	–
CCN1C(=O)N(CC)C2C1NN=c1s/c(=C3\C(=O)N(C4CCCC4)c4ccccc43)c(=O)n12 (configuration not stated)	8.74	6.4	> 100	7.31	15.6	4.86	> 100	17.6	–	–	1.26	1.21	0.551 µM	1.91 µM	1.57 µM	1.71 µM	2.12 µM	2.76 µM	–	–
O=C(Nc1cc(Cl)ccc1O)c1ccccc1Nc1ccnc(C(F)(F)F)c1	7.39	8.72	11.7	7.43	> 100	8.8	16.3	–	9.29	8.5	2.2	2.58	3.15 µM	1.94 µM	4.91 µM	3.28 µM	3.43 µM	–	3.06 µM	2.47
CC1(C)c2ccccc2N2O[C@@H]3C(=O)N(c4ccccc4)C(=O)[C@@H]3C21c1ccccc1 (some centres not stated)	> 100	–	> 100	> 100	–	> 100	> 100	> 100	–	–	–	–	–	–	–	–	–	–	–	–
CCc1cc2c(O)c(c1)Cc1cc(CC)cc(c1O)Cc1cc(CC)cc(c1O)Cc1cc(CC)cc(c1O)Cc1cc(CC)cc(c1O)Cc1cc(CC)cc(c1O)Cc1cc(CC)cc(c1O)C2	> 100	> 100	> 100	> 100	> 100	> 100	> 100	> 100	–	–	–	–	–	–	–	–	–	–	–	–
Nc1nc2c(-c3ccc([N+](=O)[O-])cc3)nnn2c2ccccc12	> 100	> 100	> 100	> 100	66.4	> 100	> 100	> 100	–	–	–	–	–	–	–	–	–	–	–	–
N#C/C(=C1\OC(=N)C(c2ccccc2)C1=O)c1ccccc1 (configuration not stated)	36.8	> 71.3	59.1	73.3	> 100	> 56.8	> 89.2	> 100	–	–	–	–	–	–	–	–	–	–	–	–
COc1cc2c3c(n(CCCNCCCNCCN)c(=O)c2cc1OC)-c1cc2c(cc1C3=O)OCO2	–	> 100	> 100	49	44.2	82	> 100	> 100	–	> 100	–	39.7	30.8 µM	17.2 µM	18 µM	26.2 µM	35.4 µM	> 100 µM	–	46.8
O=C(N/C(=C\c1ccccc1O)c1nc2ccccc2[nH]1)c1ccccc1	> 100	> 100	> 100	> 100	> 100	> 100	> 100	> 100	–	–	–	–	–	–	–	–	–	–	–	–
C(=C\C(Sc1ccccc1)c1ccccc1)/NNC1=NC(c2ccccc2)C(c2ccccc2)=NN1 (configuration not stated)	> 100	80.7	> 100	45.5	> 100	> 100	> 100	> 100	–	–	–	–	–	–	–	–	–	–	–	–
CCCCCCCCCCCCN=C(N)c1ccc(N2CCN(c3ccc(C(N)=NCCCCCCCCCCCC)cc3)CC2)cc1	–	2.86	28.1	–	24.9	15.6	40.1	> 50	> 50	21.3	–	0.614	9.31 µM	–	11.3 µM	6.23 µM	11.4 µM	17.5 µM	33.3 µM	10.6
NS(=O)(=O)c1ccc(NC(=O)C2C(=O)C(=O)N(c3ccc(S(N)(=O)=O)cc3)C2=O)cc1 (configuration not stated)	> 100	> 100	> 100	> 100	> 100	> 100	> 100	> 100	–	–	–	–	–	–	–	–	–	–	–	–
Oc1[nH]c2ccccc2c1/C=c1/ccc2c(c1)N=C(c1ccc(C(F)(F)F)cc1)N=2	9.23	–	5.55	4	12.8	3.56	20.3	15.3	13.1	14.4	2.9	–	1.92 µM	1.34 µM	2.83 µM	1.48 µM	5.94 µM	5.08 µM	3.98 µM	3.58
COc1ccc(OC)c(/C=C2\CCc3ccccc3C2=O)c1	18.5	9.32	15.4	19.6	14.4	13.8	20.2	12.8	–	–	–	–	–	–	–	–	–	–	–	–
O=C(CC1C(=O)Nc2ccccc2S1(=O)=O)Nc1ccc(Cl)cc1 (configuration not stated)	86.9	44.5	> 100	29.6	34	38.7	> 100	65.3	–	–	–	–	–	–	–	–	–	–	–	–
NC(Cc1c[nH]c2ccc([N+](=O)[O-])cc12)C(=O)O (configuration not stated)	> 100	–	> 100	> 100	> 100	> 100	> 100	> 100	> 100	> 100	–	–	–	–	–	–	–	–	–	–

SMILES	TGI [1] [µM]	TGI [2] [µM]	TGI [3] [µM]	TGI [4] [µM]	TGI [5] [µM]	TGI [6] [µM]	TGI [7] [µM]	TGI [8] [µM]	TGI [9] [µM]	TGI [10] [µM]	GI50 [1] [µM]	GI50 [2] [µM]	GI50 [3]	GI50 [4]	GI50 [5]	GI50 [6]	GI50 [7]	GI50 [8]	GI50 [9]	GI50 [10] [µM]
Cc1ccc(/C=C/C(=O)c2sc(-n3nc(-c4ccccc4)cc3-c3ccccc3)nc2C)cc1	> 100	> 100	> 100	> 100	> 100	> 100	> 100	> 100	–	–	–	–	–	–	–	–	–	–	–	–
COc1cc([N+](=O)[O-])c(S(=O)(=O)O)cc1-n1nc(C(=O)Nc2ccccc2)n[n+]1-c1cc(S(=O)(=O)[O-])c([N+](=O)[O-])cc1OC	> 100	> 100	> 100	> 100	> 100	> 100	> 100	> 100	> 100	–	–	–	–	–	–	–	–	–	–	–
O=C1C=C2CCCC2C(C(=O)O)(C(=O)O)C1 (configuration not stated)	> 100	> 100	> 100	> 100	> 100	> 100	> 100	> 100	–	–	–	–	–	–	–	–	–	–	–	–
COc1cc([C@@H]2c3cc4c(cc3[C@@H](OC(=O)c3cccc(N)c3)C3COC(=O)[C@@H]32)OCO4)cc(OC)c1O (some centres not stated)	> 56.3	–	> 100	43.9	22.9	28.9	> 100	73.3	–	–	–	–	–	–	–	–	–	–	–	–
Cc1ccc(N=C2N=C(N3CC(C)OC(C)C3)c3ccccc32)cc1 (configuration not stated)	99.4	26.5	> 100	87.1	> 100	> 100	> 100	70.4	–	–	–	–	–	–	–	–	–	–	–	–
COc1ccc(S(=O)(=O)Nc2c(/C=C\c3cc(OC)c(OC)c(OC)c3)ccc(OC)c2O)cc1	> 100	39.7	> 100	22.4	> 100	28	> 100	37.1	0.598	–	15.1	1.6	0.0408 µM	0.0469 µM	0.0374 µM	0.375 µM	0.0466 µM	0.0437 µM	0.155 µM	–
CCCCNC(=S)OCCC(C)CCCC(C)C (configuration not stated)	> 100	–	> 100	> 100	> 100	> 100	> 100	> 100	–	–	–	–	–	–	–	–	–	–	–	–
CC(C)OC/N=C(/N)NC#N	> 100	> 100	45.2	61.2	> 100	> 100	> 100	> 100	–	–	–	–	–	–	–	–	–	–	–	–
CCCCCCCCCCCCCCCC(=O)OCCOCCOCCOCCOCCOC(=O)CCCCCCCCCCCCCCC	> 100	> 100	> 100	> 100	> 100	> 100	> 100	> 100	–	–	–	–	–	–	–	–	–	–	–	–
CCOC(=O)c1[nH]c2cc(OC)c(OC)cc2c1CN(C)C	> 100	> 100	> 100	> 100	> 100	> 100	> 100	> 100	–	–	–	–	–	–	–	–	–	–	–	–
O=C(Nc1ccc(Cl)cc1C(=O)O)c1ccc([N+](=O)[O-])cc1	25.7	22.6	> 100	97.3	51.1	34.1	> 100	16.9	–	–	–	–	–	–	–	–	–	–	–	–
C[N+](C)(C)c1cc[c]([Sn]([c]2ccc([N+](C)(C)C)cc2)([c]2ccc([N+](C)(C)C)cc2)[c]2ccc([N+](C)(C)C)cc2)cc1	> 100	> 100	> 100	> 100	> 100	> 100	> 100	> 100	–	–	> 100	> 100	> 100 µM	> 100 µM	> 100 µM	> 100 µM	> 100 µM	> 100 µM	–	–
O=C(CCC(=O)Nc1cccc(C(F)(F)F)c1)CC(=O)c1ccc2ccccc2c1	> 100	> 100	> 100	> 100	> 100	> 100	> 100	> 100	–	–	–	–	–	–	–	–	–	–	–	–
CC1=CP(=O)(c2ccccc2)C=C(C)C1=C(Cl)Cl (configuration not stated)	–	–	16.6	11.5	19.8	16.5	> 100	–	–	–	–	–	–	–	–	–	–	–	–	–
CC(=O)NNc1nc(C)c(C(=O)NNC(=O)C(=O)Nc2c([N+](=O)[O-])ccc(C)c2C)s1	> 100	> 100	> 100	> 100	> 100	> 100	> 100	> 100	–	–	–	–	–	–	–	–	–	–	–	–
CC[C@H](C)[C@H](NC(=O)[C@H]1CCCCN1C)C(=O)N(C)[C@H](C[C@@H](OC(C)=O)c1cccc(C(=O)N[C@@H](Cc2ccccc2)C[C@H](C)C(=O)O)n1)C(C)C	> 25	–	> 25	> 25	> 25	> 25	> 25	> 25	> 25	–	1.95	–	0.000493 µM and 0.0025 µM	0.000816 µM and 0.0025 µM	0.000744 µM and 0.0025 µM	0.00555 µM and 0.0025 µM	0.00542 µM and 0.0025 µM	0.000774 µM and 0.0025 µM	0.0584 µM and 0.00946 µM	0.00136
C=C1C(=O)O[C@H]2[C@H]1CC/C(COC(=O)/C=C\C(=O)NCc1ccc(Cn3c(=O)sn(CCI)c3=O)cc1)=C\CC[C@@]1(C)O[C@@H]21	3.63	4.6	3.75	–	20.2	7.23	8.76	23.4	> 100	6.83	1.85	2.05	1.92 µM	–	7.63 µM	2.6 µM	2.78 µM	11.1 µM	10.2 µM	2.58
N#CC1(C#N)C=CC(=C2OCC3CCCN23)C=C1 (configuration not stated)	> 100	> 100	> 100	> 100	> 100	> 100	> 100	> 100	–	–	–	–	–	–	–	–	–	–	–	–
COCCc1n(Cc2ccc3ccccc3c2)c2ccccc2[n+]1Cc1ccc2ccccc2c1	1.72	1.13	2.59	–	–	2.76	–	–	53	–	0.443	0.214	1.11 µM	–	–	1.28 µM	–	–	11.2 µM	–
